Laboratory results published in patent publication US20080038809A1, “ISOLATED LECTIN POLYPEPTIDES CONSISTING OF TRUNCATED […] UDP-GalNAc:POLYPEPTIDE N- ACETYLGALACTOSAMINYLTRANSFERASES” (GLYCOZYM APS, priority 2002, published 2008).

How the values were obtained:
MUC5AC in HT29MTX cells = test: Immuno-fluorescence staining of MUC5AC with CLH2 (FIG. 18); assay type: cell-based, human; settings: 5 mM, continuous culture
Source text: FIG. 18 illustrates immuno-fluorescence staining of HT29MTX cells treated with inhibitors as indicated and stained with the anti-MUC5AC monoclonal antibody, CLH2.
In order to evaluate GalNAcβ-benzyl as an inhibitor of mucin glycosylation and secretion we used the cultured colon carcinoma cells of mucin secreting phenotypes: HT-29 metotrexate (MTX) cells selected from the HT-29 cell line by culture in the presence of MTX (kind gift from G. Huet, France). The HT-29 MTX cells were selected to yield a goblet cell like phenotype with constitutive production of MUC5AC. In order to ensure proper goblet cell differentiation the HT29MTX cell line were continuously grown up to 21 days in the presence of 5 mM GalNAcα-benzyl, 5 mM GalNAcβ-benzyl, 5 mM GlcNAcα-benzyl and without inhibitor using culture conditions as described in Hennebicq-Reig et al. (Permanent exposure of mucin-secreting HT-29 cells to benzyl-N-acetyl-alpha-D-galactosaminide induces abnormal O-glycosylation of mucins and inhibits constitutive and stimulated MUC5AC secretion. Biochem J. 1998; 334:283-95). At 7, 14 and 21 days of continuous culture, media was collected and cells were fixed in 3% paraformaldehyde and stained for the presence of MUC5AC and specific carbohydrate structures using immuno-histochemistry with the following monoclonal antibodies: CLH2 recognizing MUC5AC (Reis C. et al. Immunohistochemical study of MUC5AC expression in human gastric carcinomas using a novel monoclonal antibody. Int. J. Cancer. 1997; 74:112-21), 1E3 recognizing Tn (GalNAcα linked to serine or threonine), 3C9 recognizing T (Galβ1-3GalNAcα linked to serine or threonine, and 3F1 recognizing Sialyl-Tn (NeuAcα2-6GalNAcα linked to serine or threonine. […] Furthermore the viscosity of the media from cells with and without inhibitor was evaluated using viscosity micro-measurement.

[1] = system: cell surface expression of MUC1 in CHO1d1D/MUC1F-clone2 cells; test: Cell surface expression of MUC1 by immunofluorescence; assay type: cell-based, Chinese hamster (CHO 1d1D cells); human MUC1; settings: 1 mM, cells grown in GalNAc
Method: FIGS. 11A-D are a series of photomicrographs (left to right from top to bottom of) anti-MUC1 antibody immunofluorescence staining of CHO 1d1D cells stably transfected with a full coding cell surface MUC1 (CHO1d1D/MUC1F-clone2). Cell grown in the presence of GalNAc were treated with the O-glycosylation inhibitor GalNAcα-benzyl or control GlcNAcα-benzyl. Cells were grown in plates and stained without permeabilization as described in Example 4.
We therefore investigated the effect of treatment with GalNAcα-benzyl of CHO1d1D/MUC1F-clone2 cells grown in the presence of GalNAc. CHO1d1D/MUC1F-clone2 cells were seeded in 6 well plates at a density of 0.2×10^6 per well and were grown for 6 hours in Hams F12 medium with serum until approximately 30% subconfluent. […] After 18 hours, the medium was replaced with fresh Optimem containing the sugars and benzyl derivatives as above and grown for 12-48 hours. Initially we analyzed surface expression of MUC1 by immunocytology. Cells were washed once in PBS-CMF (phosphate buffered saline Calcium and Magnesium free) after carefully removing the medium from the wells and subsequently fixed in 2 ml 3% paraformaldehyde at 25° C. for 20 min followed by three washes with PBS-CMF 3 times. […]

Question: How did the “intracellular staining of MUC5AC” value (MUC5AC in HT29MTX cells) turn out when `CC(=O)N[C@H]1[C@@H](OCc2ccccc2)O[C@H](CO)[C@H](O)[C@@H]1O` [BzlαGalNAc, benzyl-N-acetyl-alpha-D-galactosaminide] was run?
Answer: Its value is “increased intracellular staining”.

Question: What about the storage phenotype (MUC5AC in HT29MTX cells) of the same compound?
Answer: Its storage phenotype is “induced a storage phenotype”.

Question: How did the “inhibition of cell surface expression of MUC1” value [1] turn out when `CC(=O)N[C@H]1[C@@H](OCc2ccccc2)O[C@H](CO)[C@H](O)[C@@H]1O` [GalNAcα-benzyl, benzyl-N-acetyl-alpha-D-galactosaminide] was run?
Answer: Its value is “strong inhibition of cell surface expression of MUC1”.

Question: Which “intracellular staining of MUC5AC” value (MUC5AC in HT29MTX cells) does the source give for `CC(=O)N[C@H]1[C@H](OCc2ccccc2)O[C@H](CO)[C@H](O)[C@@H]1O` [GalNAcβ-benzyl] here?
Answer: Its value is “clearly diminished intracellular staining”.

Question: And the storage phenotype (MUC5AC in HT29MTX cells)?
Answer: The storage phenotype was “did not lead to any storage disease”.

Question: `CC(=O)N[C@H]1[C@@H](OCc2ccccc2)O[C@H](CO)[C@@H](O)[C@@H]1O` [GlcNAcα-benzyl] was tested. Which “inhibition of cell surface expression of MUC1” value [1] did it give?
Answer: The value was “no inhibition”.
